Reference: patent US4864018A, “Anthraquinone derivatives and their use as protein absorbents” (Imperial Chemical Industries PLC, priority 1985, dated 1989)

Molecular target: T1, horse liver alcohol dehydrogenase (Equus caballus, UniProt P00327)
T1 construct: from tissue; host or cells: horse liver
Assay: affinity of binding with horse liver alcohol dehydrogenase: reduction in rate of enzyme de-activation by CI Reactive Blue 4 in competition with dye
Conditions: carboxylate (i), (ii), (iii) versus sulphonate (iv), (v), (vi) respectively
Procedure: Three dyes of Formula I, in which the COOH group on Ring A is in the ortho (o), meta (m) and para (p) positions respectively, (i), (ii) and (iii) in Table 2, and three analogues in which the COOH groups are replaced by SO3 H groups, (iv), (v) and (vi) in Table 2, were assessed by affinity of binding with horse liver alcohol dehydrogenase. The assessment procedure comprised measuring the reduction in rate of enzyme de-activation by CI Reactive Blue 4 (a highly reactive, dichlorotriazine dye which rapidly deactivates horse liver alcohol dehydrogenase) when of dyes (i) to (vi) was allowed to compete with CI Reactive Blue 4 for the enzyme. From the reductions in rate observed the dissociation constants, KD, of the [enzyme-dye] combinations were calculated and these values are listed in Table 2.

T1 sequence (P00327 2-375 limits assumed): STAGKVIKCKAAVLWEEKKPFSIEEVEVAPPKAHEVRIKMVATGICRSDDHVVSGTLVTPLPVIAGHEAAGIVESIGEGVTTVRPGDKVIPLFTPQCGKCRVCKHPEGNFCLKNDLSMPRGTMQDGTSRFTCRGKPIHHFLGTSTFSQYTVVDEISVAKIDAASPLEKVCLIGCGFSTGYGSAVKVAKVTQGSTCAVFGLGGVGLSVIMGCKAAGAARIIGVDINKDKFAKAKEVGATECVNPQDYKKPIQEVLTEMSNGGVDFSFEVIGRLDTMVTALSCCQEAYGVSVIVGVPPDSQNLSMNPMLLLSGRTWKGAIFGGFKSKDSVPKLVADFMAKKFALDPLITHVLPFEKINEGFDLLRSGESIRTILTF

binding affinity compared with the corresponding sulphonate analogue | SMILES
markedly and surprisingly higher | Nc1c(S(=O)(=O)O)cc(Nc2ccc(Nc3nc(Cl)nc(Nc4cccc(C(=O)O)c4)n3)c(S(=O)(=O)O)c2)c2c1C(=O)c1ccccc1C2=O [(ii)]
markedly and surprisingly higher | Nc1c(S(=O)(=O)O)cc(Nc2ccc(Nc3nc(Cl)nc(Nc4ccccc4C(=O)O)n3)c(S(=O)(=O)O)c2)c2c1C(=O)c1ccccc1C2=O [(i)]
markedly and surprisingly higher | Nc1c(S(=O)(=O)O)cc(Nc2ccc(Nc3nc(Cl)nc(Nc4ccc(C(=O)O)cc4)n3)c(S(=O)(=O)O)c2)c2c1C(=O)c1ccccc1C2=O [(iii)]
